Measured values taken from patent publication US20260008787A1, “FUSED RING KRAS INHIBITORS FOR TREATING DISEASE” (BLOSSOMHILL THERAPEUTICS, INC., priority 2022, published 2026).

What was measured:
Format in all cases: cell-based
Conditions in all cases: 384-well, CellTiter-Glo 2.0
[1] = system: SW620 (KRAS G12V); test: Cell proliferation assay (CellTiter-Glo, 72 hours), SW620
Method: (§1) Two thousand KRAS mutant cells per well were seeded in 384-well white plate and then treated with indicated compounds for 72 hours at 37° C. and 5% CO2. Cell proliferation was measured using CellTiter-Glo 2.0 luciferase-based ATP detection assay (Promega, Madison, WI) following the manufacturer's protocol. IC50 values were determined using Prism software (GraphPad Software, San Diego, CA).

[2] = system: AGS (G12D); test: Cell proliferation assay (CellTiter-Glo, 72 hours), AGS
Method: as §1

[3] = system: GP2D (KRAS G12D); test: Cell proliferation assay (CellTiter-Glo, 72 hours), GP2D
Method: as §1

IC50 ([1]; Homo sapiens, SW-620, 72 h)	IC50 ([2]; 72 h)	Structure (SMILES)	IC50 [1]	IC50 [2]	IC50 [3]	IC50 ([3]; GP2d, 72 h)
> 3000 nM	> 3000 nM	C#Cc1c(F)ccc2cc(O)cc(-c3nc4c5c(nc(OC[C@@]67CCC[N+]6(C)C[C@H](F)C7)nc5c3F)N[C@@H](C)CO4)c12 (stereo partly drawn) [Example 77, (2R,7aS)-7a-({[(9S)-5-(8-ethynyl-7-fluoro-3-hydroxynaphthalen-1-yl)-4-fluoro-9-methyl-9,10-dihydro-8H-7-oxa-1,3,6,10-tetraazacyclohepta[1,2,3-de]naphthalen-2-yl]oxy}methyl)-2-fluoro-4-methylhexahydro-1H-pyrrolizin-4-ium]				1350 nM
> 3000 nM	> 3000 nM	C#Cc1c(F)ccc2cc(O)cc(-c3nc4c5c(nc(OC[C@@]67CCCN6C[C@H](F)C7)nc5c3F)N(Cc3ccccc3)[C@H](CO)CO4)c12 [Example 81, 4-[(9R)-10-benzyl-4-fluoro-2-{[(2R,7aS)-2-fluorotetrahydro-1H-pyrrolizin-7a(5H)-yl]methoxy}-9-(hydroxymethyl)-9,10-dihydro-8H-7-oxa-1,3,6,10-tetraazacyclohepta[1,2,3-de]naphthalen-5-yl]-5-ethynyl-6-fluoronaphthalen-2-ol]				> 3000 nM
1950 nM	754 nM	C#Cc1c(F)ccc2cc(O)cc(-c3nc4c5c(nc(OC[C@@]67CCCN6C[C@H](F)C7)nc5c3F)N[C@@H](CC)CO4)c12 [Example 90, 4-[(9S)-9-ethyl-4-fluoro-2-{[(2R,7aS)-2-fluorotetrahydro-1H-pyrrolizin-7a(5H)-yl]methoxy}-9,10-dihydro-8H-7-oxa-1,3,6,10-tetraazacyclohepta[1,2,3-de]naphthalen-5-yl]-5-ethynyl-6-fluoronaphthalen-2-ol]				189 nM
> 3000 nM	923 nM	C#Cc1c(F)ccc2cc(O)cc(-c3nc4c5c(nc(OC[C@@]67CCCN6C[C@H](F)C7)nc5c3F)N(C)[C@H](CO)CO4)c12 [Example 91, 5-ethynyl-6-fluoro-4-[(9R)-4-fluoro-2-{[(2R,7aS)-2-fluorotetrahydro-1H-pyrrolizin-7a(5H)-yl]methoxy}-9-(hydroxymethyl)-10-methyl-9,10-dihydro-8H-7-oxa-1,3,6,10-tetraazacyclohepta[1,2,3-de]naphthalen-5-yl]naphthalen-2-ol]				543 nM
> 3000 nM	> 3000 nM	C#Cc1c(F)ccc2cc(O)cc(-c3nc4c5c(nc(OC[C@@]67CCCN6C[C@H](F)C7)nc5c3F)NC3(CC3)CO4)c12 [Example 95, 5-ethynyl-6-fluoro-4-(4′-fluoro-2′-{[(2R,7aS)-2-fluorotetrahydro-1H-pyrrolizin-7a(5H)-yl]methoxy}-8′H,10′H-spiro[cyclopropane-1,9′-[7]oxa[1,3,6,10]tetraazacyclohepta[1,2,3-de]naphthalen]-5′-yl)naphthalen-2-ol]				993 nM
1180 nM	385 nM	C#Cc1c(F)ccc2cc(O)cc(-c3nc4c5c(nc(OC[C@@]67CCCN6C[C@H](O)C7)nc5c3F)N3CCCC[C@H]3CO4)c12 [Example 97, (2R,7aS)-7a-({[(8aS)-5-(8-ethynyl-7-fluoro-3-hydroxynaphthalen-1-yl)-4-fluoro-8,8a,9,10,11,12-hexahydro-7-oxa-1,3,6,12a-tetraazabenzo[4,5]cyclohepta[1,2,3-de]naphthalen-2-yl]oxy}methyl)hexahydro-1H-pyrrolizin-2-ol]				916 nM
> 3000 nM	> 3000 nM	CCc1c(F)ccc2cc(O)cc(-c3nc4c5c(nc(OC[C@@]67CCCN6C[C@H](F)C7)nc5c3F)N[C@H](CO)CO4)c12 [Example 100, 5-ethyl-6-fluoro-4-[(9R)-4-fluoro-2-{[(2R,7aS)-2-fluorotetrahydro-1H-pyrrolizin-7a(5H)-yl]methoxy}-9-(hydroxymethyl)-9,10-dihydro-8H-7-oxa-1,3,6,10-tetraazacyclohepta[1,2,3-de]naphthalen-5-yl]naphthalen-2-ol]				> 3000 nM
> 3000 nM	> 3000 nM	C#Cc1c(F)ccc2cc(O)cc(-c3nc4c5c(nc(OC[C@@]67CCCN6C[C@@H](O)C7)nc5c3F)N3CCCC[C@H]3CO4)c12 [Example 101, (2S,7aS)-7a-({[(8aS)-5-(8-ethynyl-7-fluoro-3-hydroxynaphthalen-1-yl)-4-fluoro-8,8a,9,10,11,12-hexahydro-7-oxa-1,3,6,12a-tetraazabenzo[4,5]cyclohepta[1,2,3-de]naphthalen-2-yl]oxy}methyl)hexahydro-1H-pyrrolizin-2-ol]				880 nM
1040 nM	1130 nM	C#Cc1c(F)ccc2cc(O)cc(-c3nc4c5c(nc(OC[C@@]67CCCN6C[C@H](F)C7)nc5c3F)N3C=CCC[C@H]3CO4)c12 [Example 107, 5-ethynyl-6-fluoro-4-[(7S)-13-fluoro-16-[[(2R,8S)-2-fluoro-1,2,3,5,6,7-hexahydropyrrolizin-8-yl]methoxy]-9-oxa-2,11,15,17-tetrazatetracyclo [8.7.1.0^2,7.0^14,18]octadeca-1 (17),3,10 (18),11,13,15-hexaen-12-yl]naphthalen-2-ol]				749 nM

The next lines start with the molecule.

Structure (SMILES)	IC50 ([1]; Homo sapiens, SW-620, 72 h)	IC50 ([2]; 72 h)	IC50 [1]	IC50 [2]	IC50 [3]	IC50 ([3]; GP2d, 72 h)
C#Cc1c(F)ccc2cc(O)cc(-c3nc4c5c(nc(OC[C@@]67CCCN6C/C(=C\F)C7)nc5c3F)N3CCCC[C@H]3CO4)c12 [Example 76, 5-ethynyl-6-fluoro-4-[(8aS)-4-fluoro-2-{[(2Z,7aS)-2-(fluoromethylidene)tetrahydro-1H-pyrrolizin-7a(5H)-yl]methoxy}-8,8a,9,10,11,12-hexahydro-7-oxa-1,3,6,12a-tetraazabenzo[4,5]cyclohepta[1,2,3-de]naphthalen-5-yl]naphthalen-2-ol]			11.6 nM	12.3 nM	3.35 nM	
C#Cc1c(F)ccc2cc(O)cc(-c3nc4c5c(nc(OC[C@@]67CCCN6C[C@H](F)C7)nc5c3F)N(Cc3ccccc3)[C@@H](CO)CO4)c12 [Example 80, 4-[(9S)-10-benzyl-4-fluoro-2-{[(2R,7aS)-2-fluorotetrahydro-1H-pyrrolizin-7a(5H)-yl]methoxy}-9-(hydroxymethyl)-9,10-dihydro-8H-7-oxa-1,3,6,10-tetraazacyclohepta[1,2,3-de]naphthalen-5-yl]-5-ethynyl-6-fluoronaphthalen-2-ol]	> 3000 nM	> 3000 nM				> 3000 nM
C#Cc1c(F)ccc2cc(O)cc(-c3nc4c5c(nc(OC[C@@]67CCCN6C[C@H](F)C7)nc5c3F)N3C[C@@H](O)CC[C@H]3CO4)c12 [Example 86, (8aS,11S)-5-(8-ethynyl-7-fluoro-3-hydroxynaphthalen-1-yl)-4-fluoro-2-{[(2R,7aS)-2-fluorotetrahydro-1H-pyrrolizin-7a(5H)-yl]methoxy}-8,8a,9,10,11,12-hexahydro-7-oxa-1,3,6,12a-tetraazabenzo[4,5]cyclohepta[1,2,3-de]naphthalen-11-7ol]	105 nM	28.3 nM				9.1 nM
C#Cc1c(F)ccc2cc(O)cc(-c3nc4c5c(nc(OC[C@@]67CCCN6C[C@H](F)C7)nc5c3F)N3C[C@H](O)CC[C@@H]3CO4)c12 [Example 87, (8aR,11R)-5-(8-ethynyl-7-fluoro-3-hydroxynaphthalen-1-yl)-4-fluoro-2-{[(2R,7aS)-2-fluorotetrahydro-1H-pyrrolizin-7a(5H)-yl]methoxy}-8,8a,9,10,11,12-hexahydro-7-oxa-1,3,6,12a-tetraazabenzo[4,5]cyclohepta[1,2,3-de]naphthalen-11-ol]	686 nM	132 nM				64.5 nM
CCc1c(F)ccc2cc(O)cc(-c3nc4c5c(nc(OC[C@@]67CCCN6C[C@H](F)C7)nc5c3F)N(C)[C@H](CO)CO4)c12 [Example 92, 5-ethyl-6-fluoro-4-[(9R)-4-fluoro-2-{[(2R,7aS)-2-fluorotetrahydro-1H-pyrrolizin-7a(5H)-yl]methoxy}-9-(hydroxymethyl)-10-methyl-9,10-dihydro-8H-7-oxa-1,3,6,10-tetraazacyclohepta[1,2,3-de]naphthalen-5-yl]naphthalen-2-ol]	579 nM	393 nM				348 nM
C#Cc1c(F)ccc2cc(O)cc(-c3nc4c5c(nc(OC[C@@]67CCCN6C[C@H](F)C7)nc5c3F)N3C[C@@H](O)CC[C@@H]3CO4)c12 [Example 94, (8aR,11S)-5-(8-ethynyl-7-fluoro-3-hydroxynaphthalen-1-yl)-4-fluoro-2-{[(2R,7aS)-2-fluorotetrahydro-1H-pyrrolizin-7a(5H)-yl]methoxy}-8,8a,9,10,11,12-hexahydro-7-oxa-1,3,6,12a-tetraazabenzo[4,5]cyclohepta[1,2,3-de]naphthalen-11-ol]	> 3000 nM	> 3000 nM				1100 nM
C#Cc1c(F)ccc2cc(O)cc(-c3nc4c5c(nc(OC[C@@]67CCCN6C[C@H](F)C7)nc5c3F)N[C@H]3CCC[C@H]3O4)c12 [Example 102, 5-ethynyl-6-fluoro-4-[(7aR,10aS)-4-fluoro-2-{[(2R,7aS)-2-fluorotetrahydro-1H-pyrrolizin-7a(5H)-yl]methoxy}-7a,8,9,10,10a,11-hexahydro-7-oxa-1,3,6,11-tetraazanaphtho[1,8-fg]azulen-5-yl]naphthalen-2-ol]	> 3000 nM	> 3000 nM				> 3000 nM
C#Cc1c(F)ccc2cc(O)cc(-c3nc4c5c(nc(OC[C@@]67CCCN6C[C@H](F)C7)nc5c3F)N3CC(F)CC[C@H]3CO4)c12 (stereo partly drawn) [Example 105, 4-[(4R,7S)-4,13-difluoro-16-[[(2R,8S)-2-fluoro-1,2,3,5,6,7-hexahydropyrrolizin-8-yl]methoxy]-9-oxa-2,11,15,17-tetrazatetracyclo[8.7.1.0^2,7.0^14,18]octadeca-1 (17),10 (18),11,13,15-pentaen-12-yl]-5-ethynyl-6-fluoro-naphthalen-2-ol]	86.2 nM	81 nM				21.6 nM
